Source: US7205306B2, “Substituted pyrazinones, pyridines and pyrimidines as corticotropin releasing factor ligands” (Bristol-Myers Squibb Pharma Company, priority 2001, dated 2007)
Where a name gives a salt, the structure may show the parent alone.

First: CCC(CC)n1cc(Cl)nc(N2CCc3cc(OC)cc(C)c32)c1=O (as salt: hydrochloride) [Example 431, 5-Chloro-1-(1-ethylpropyl)-3-(5-methoxy-7-methyl-2,3-dihydro-1H-indol-1-yl)-2(1H)-pyrazinone]
Second: CC[C@H](COC)n1cc(Cl)nc(N2CCc3cc(OC)cc(C)c32)c1=O (as salt: hydrochloride) [Example 545, 5-Chloro-3-(5-methoxy-7-methyl-2,3-dihydro-1H-indol-1-yl)-1-[(1R)-1-(methoxymethyl)propyl]-2(1H)-pyrazinone]
The melting point of the first is higher: 164 to 165 °C for the first, 62 to 64 °C for the second.

First: CCC(CC)n1cc(Cl)nc(N2CCc3cc(OC)cc(Br)c32)c1=O (as salt: hydrochloride) [Example 441, 3-(7-Bromo-5-methoxy-2,3-dihydro-1H-indol-1-yl)-5-chloro-1-(1-ethylpropyl)-2(1H)-pyrazinone]
Second: CC[C@H](COC)n1cc(Cl)nc(N2CCc3cc(OC)cc(Br)c32)c1=O (as salt: hydrochloride) [Example 523, 3-(7-Bromo-5-methoxy-2,3-dihydro-1H-indol-1-yl)-5-chloro-1-[(1R)-1-(methoxymethyl)propyl]-2(1H)-pyrazinone]
The melting point of the first is higher: 130 to 132 °C for the first, 102 to 104 °C for the second.

First: CCC(CC)n1cc(C)nc(N2CCc3cc(OC)cc(C)c32)c1=O (as salt: hydrochloride) [Example 481, 3-(5-Methoxy-7-methyl-2,3-dihydro-1H-indol-1-yl)-1-(1-ethylpropyl)-5-methyl-2(1H)-pyrazinone]
Second: CCC(CC)n1cc(Br)nc(N2CCc3cc(OC)cc(C)c32)c1=O (as salt: hydrochloride) [Example 506, 5-Bromo-1-(1-ethylpropyl)-3-(5-methoxy-7-methyl-2,3-dihydro-1H-indol-1-yl)-2(1H)-pyrazinone]
The melting point of the first is lower: 138 to 140 °C for the first, 152 to 154 °C for the second.

Compared with `CCC(C)n1cc(Cl)nc(N2CCc3cc(OC)cc(Cl)c32)c1=O` (centres unmarked) (as salt: hydrochloride) [Example 501, 5-Chloro-3-(7-chloro-5-methoxy-2,3-dihydro-1H-indol-1-yl)-1-(1-methylpropyl)-2(1H)-pyrazinone], `CCC(C)n1cc(Cl)nc(N2CCc3cc(OC)cc(Br)c32)c1=O` (centres unmarked) (as salt: hydrochloride) [Example 502, 3-(7-Bromo-5-methoxy-2,3-dihydro-1H-indol-1-yl)-5-chloro-1-(1-methylpropyl)-2(1H)-pyrazinone] is higher in melting point: 143 to 145 °C for the first, 155 to 157 °C for the second.

First: CCC(C)n1cc(Cl)nc(N2CCc3cc(OC)cc(C)c32)c1=O (centres unmarked) (as salt: hydrochloride) [Example 503, 5-Chloro-3-(5-methoxy-7-methyl-2,3-dihydro-1H-indol-1-yl)-1-(1-methylpropyl)-2(1H)-pyrazinone]
Second: CC[C@H](C1CC1)n1cc(Cl)nc(N2CCc3cc(OC)cc(C)c32)c1=O (as salt: hydrochloride) [Example 510, 5-Chloro-1-[(1R)-1-cyclopropylpropyl]-3-(5-methoxy-7-methyl-2,3-dihydro-1H-indol-1-yl)-2(1H)-pyrazinone]
The melting point of the first is higher: 176 to 178 °C for the first, 160 to 162 °C for the second.

First: CCC(CC)n1cc(Br)nc(N2CCc3cc(OC)cc(Br)c32)c1=O (as salt: hydrochloride) [Example 505, 5-Bromo-3-(7-bromo-5-methoxy-2,3-dihydro-1H-indol-1-yl)-1-(1-ethylpropyl)-2(1H)-pyrazinone]
Second: CC[C@H](COC)n1cc(Br)nc(N2CCc3cc(OC)cc(Br)c32)c1=O (as salt: hydrochloride) [Example 525, 5-Bromo-3-(7-bromo-5-methoxy-2,3-dihydro-1H-indol-1-yl)-1-[(1R)-1-(methoxymethyl)propyl]-2(1H)-pyrazinone]
The melting point of the first is higher: 133 to 135 °C for the first, 122 to 123 °C for the second.

First: CC[C@H](C1CC1)n1cc(Cl)nc(N2CCc3cc(OC)cc(Cl)c32)c1=O (as salt: hydrochloride) [Example 508, 5-Chloro-3-(7-chloro-5-methoxy-2,3-dihydro-1H-indol-1-yl)-1-[(1R)-1-cyclopropylpropyl]-2(1H)-pyrazinone]
Second: CC[C@@H](C1CC1)n1cc(Cl)nc(N2CCc3cc(OC)cc(Cl)c32)c1=O (as salt: hydrochloride) [Example 514, 5-Chloro-3-(7-chloro-5-methoxy-2,3-dihydro-1H-indol-1-yl)-1-[(1S)-1-cyclopropylpropyl]-2(1H)-pyrazinone]
The melting point of the first is lower: 118 to 120 °C for the first, 128 to 130 °C for the second.

`CC[C@H](C1CC1)n1cc(Cl)nc(N2CCc3cc(OC)cc(Br)c32)c1=O` (as salt: hydrochloride) [Example 509, 3-(7-Bromo-5-methoxy-2,3-dihydro-1H-indol-1-yl)-5-chloro-1-[(1R)-1-cyclopropylpropyl]-2(1H)-pyrazinone] and `CC[C@@H](C1CC1)n1cc(Cl)nc(N2CCc3cc(OC)cc(Br)c32)c1=O` (as salt: hydrochloride) [Example 515, 3-(7-Bromo-5-methoxy-2,3-dihydro-1H-indol-1-yl)-5-chloro-1-[(1S)-1-cyclopropylpropyl]-2(1H)-pyrazinone] fall in the same range of melting point: 138 to 140 °C for the first, 138 to 140 °C for the second.

First: CC[C@@H](C1CC1)n1cc(Cl)nc(N2CCc3cc(OC)cc(C)c32)c1=O (as salt: hydrochloride) [Example 516, 5-Chloro-1-[(1S)-1-cyclopropylpropyl]-3-(5-methoxy-7-methyl-2,3-dihydro-1H-indol-1-yl)-2(1H)-pyrazinone]
Second: COc1cc(C)c2c(c1)CCN2c1nc(Cl)cn(C(C(C)C)C(C)C)c1=O (as salt: hydrochloride) [Example 532]
The melting point of the first is higher: 156 to 158 °C for the first, 94 to 96 °C for the second.

`CC[C@H](COC)n1cc(Br)nc(N2CCc3cc(OC)cc(C)c32)c1=O` (as salt: hydrochloride) [Example 526, 5-Bromo-3-(5-methoxy-7-methyl-2,3-dihydro-1H-indol-1-yl)-1-[(1R)-1-(methoxymethyl)propyl]-2(1H)-pyrazinone] and `CC[C@@H](COC)n1cc(Br)nc(N2CCc3cc(OC)cc(C)c32)c1=O` (as salt: hydrochloride) [Example 549, 5-Bromo-3-(5-methoxy-7-methyl-2,3-dihydro-1H-indol-1-yl)-1-[(1S)-1-(methoxymethyl)propyl]-2(1H)-pyrazinone] cannot be ordered by melting point: 116 to 118 °C for the first, 115 to 117 °C for the second.

First: CC[C@@H](COC)n1cc(Cl)nc(N2CCc3cc(OC)cc(Br)c32)c1=O (as salt: hydrochloride) [Example 529, 3-(7-Bromo-5-methoxy-2,3-dihydro-1H-indol-1-yl)-5-chloro-1-[(1S)-1-(methoxymethyl)propyl]-2(1H)-pyrazinone]
Second: CC[C@H](COC)n1cc(Cl)nc(N2CCc3cc(OC)cc(Cl)c32)c1=O (as salt: hydrochloride) [Example 544, 5-Chloro-3-(7-chloro-5-methoxy-2,3-dihydro-1H-indol-1-yl)-1-[(1R)-1-(methoxymethyl)propyl]-2(1H)-pyrazinone]
The melting point of the first is lower: 100 to 102 °C for the first, 126 to 128 °C for the second.

`COc1cc(C)c2c(c1)CCN2c1nc(Cl)cn(CCSC)c1=O` (as salt: hydrochloride) [Example 534, 5-Chloro-3-(5-methoxy-7-methyl-2,3-dihydro-1H-indol-1-yl)-1-[2-(methylthio)ethyl]-2(1H)-pyrazinone] gave a melting point of 111 to 113 °C.
